In patent US11434242B2, “Dopamine-b-hydroxylase inhibitors” (BIAL-PORTELA & Cª, S.A., priority 2017, dated 2022):
Marks after values point to notes of the source that are not given here.

Molecular target: T1, Dopamine beta hydroxylase (Homo sapiens, UniProt P09172)
T1 construct: 125 μl of plasma; tissue Instituto Português do Sangue Transplantação; host or cells: human plasma from healthy donors
T1 sequence (P09172 40-617 limits assumed): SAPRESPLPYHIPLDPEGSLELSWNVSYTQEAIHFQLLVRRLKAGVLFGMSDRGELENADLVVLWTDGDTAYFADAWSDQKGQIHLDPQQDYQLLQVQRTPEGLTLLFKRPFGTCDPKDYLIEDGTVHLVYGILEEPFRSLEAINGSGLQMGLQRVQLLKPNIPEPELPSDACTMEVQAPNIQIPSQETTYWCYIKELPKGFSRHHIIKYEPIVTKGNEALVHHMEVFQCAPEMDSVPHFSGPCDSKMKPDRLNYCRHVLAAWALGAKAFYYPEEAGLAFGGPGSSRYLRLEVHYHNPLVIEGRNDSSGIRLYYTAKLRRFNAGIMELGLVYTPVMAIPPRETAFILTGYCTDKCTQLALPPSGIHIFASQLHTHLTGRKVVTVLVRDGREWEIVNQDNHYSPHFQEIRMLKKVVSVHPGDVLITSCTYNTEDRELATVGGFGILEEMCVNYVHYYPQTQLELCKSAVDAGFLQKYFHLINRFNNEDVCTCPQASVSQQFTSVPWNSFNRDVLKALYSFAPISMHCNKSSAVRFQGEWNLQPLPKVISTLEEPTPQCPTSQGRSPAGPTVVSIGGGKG
Test: Dopamine beta hydroxylase activity in human plasma
Assay type: biochemical
Settings: for Plasma (1 μM), activity in % of control: inhibitor 1 μM
Method in brief: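 Octopamine production from tyramine over 45 min at 37° C, measured photometrically at 330 nm after SCX extraction and periodate oxidation against an octopamine standard curve, indicates plasma DβH activity. Compounds tested at final 10, 100 and 1000 nM in human plasma, pH 5.0 cofactor buffer, 10 min preincubation; results as % of control.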

Compound | Plasma (0.01 μM), activity in % of control (inhibitor 0.01 μM) | Plasma (0.1 μM), activity in % of control (inhibitor 0.1 μM) | Plasma (1 μM), activity in % of control | Plasma (0.01 μM), activity in % of control, re-test (asterisked) (inhibitor 0.01 μM, re-tested under the same experimental conditions, asterisked data believed to be correct) | Plasma (0.1 μM), activity in % of control, re-test (asterisked) (inhibitor 0.1 μM, re-tested under the same experimental conditions, asterisked data believed to be correct)
CN(C(=O)Cc1[nH]c(=S)n2c1C[C@@H](c1c(F)ccc(Cl)c1F)C2)C1CCS(=O)(=O)CC1 [Example 163, (S)-2-(6-(3-chloro-2,6-difluorophenyl)-3-thioxo-2,5,6,7-tetrahydro-3H-pyrrolo[1,2-c]imidazol-1-yl)-N-(1,1-dioxidotetrahydro-2H-thiopyran-4-yl)-N-methylacetamide] | 14.8 % of control | 2.4 % of control |  |  | 
O=C(Cc1[nH]c(=S)n2c1C[C@@H](c1c(F)ccc(Br)c1F)C2)NC1CCC1 [Example 102, (S)-2-(6-(3-bromo-2,6-difluorophenyl)-3-thioxo-2,5,6,7-tetrahydro-3H-pyrrolo[1,2-c]imidazol-1-yl)-N-cyclobutylacetamide] |  | 20.3 % of control | 1.7 % of control |  | 
Cn1c(CC(=O)NCc2ccc3c(c2)OCO3)c2n(c1=S)C[C@H](c1c(F)ccc(Cl)c1F)C2 [Example 291, (S)—N-(benzo[d][1,3]dioxol-5-ylmethyl)-2-(6-(3-chloro-2,6-difluorophenyl)-2-methyl-3-thioxo-2,5,6,7-tetrahydro-3H-pyrrolo[1,2-c]imidazol-1-yl)acetamide] | 30.2 % of control | 1.7 % of control |  |  | 
Cn1c(CC(=O)N[C@@H]2CCOC2)c2n(c1=S)C[C@@]1(c3c(F)ccc(Cl)c3F)C[C@@H]21 [Example 274, 2-((5aS,6aR)-5a-(3-chloro-2,6-difluorophenyl)-2-methyl-3-thioxo-2,3,5,5a,6,6a-hexahydrocyclopropa[3,4]pyrrolo[1,2-c]imidazol-1-yl)-N—((R)-tetrahydrofuran-3-yl)acetamide] | 55.9 % of control | 11.2 % of control |  |  | 
Cn1c(CC(=O)O)c2n(c1=S)C[C@@]1(c3cc(Cl)ccc3F)C[C@@H]21 [Example 276, 2-((5aS,6aR)-5a-(5-chloro-2-fluorophenyl)-2-methyl-3-thioxo-2,3,5,5a,6,6a-hexahydrocyclopropa[3,4]pyrrolo[1,2-c]imidazol-1-yl)acetic Acid] | 83.3 % of control | 33.3 % of control |  |  | 
COCCNC(=O)Cc1[nH]c(=S)n2c1C[C@@H](c1c(F)ccc(Br)c1F)C2 [Example 103, (S)-2-(6-(3-bromo-2,6-difluorophenyl)-3-thioxo-2,5,6,7-tetrahydro-3H-pyrrolo[1,2-c]imidazol-1-yl)-N-(2-methoxyethyl)acetamide] |  | 21.6 % of control | 1.8 % of control |  | 
Cl.Fc1cc(F)c(F)c([C@H]2Cc3c(CCN4CCCC4)[nH]c(=S)n3C2)c1F [Example 198, (R)-1-(2-(pyrrolidin-1-yl)ethyl)-6-(2,3,5,6-tetrafluorophenyl)-2,5,6,7-tetrahydro-3H-pyrrolo[1,2-c]imidazole-3-thione Hydrochloride] | 52.2 % of control | 11.1 % of control |  | 84.5* % of control | 99.1* % of control
O=C(CCc1[nH]c(=S)n2c1C[C@H](c1c(F)c(F)cc(F)c1F)C2)N1CCOCC1 [Example 205, (R)-1-morpholino-3-(6-(2,3,5,6-tetrafluorophenyl)-3-thioxo-2,5,6,7-tetrahydro-3H-pyrrolo[1,2-c]imidazol-1-yl)propan-1-one] | 76.9 % of control | 18.2 % of control |  |  | 
O=C(Cc1[nH]c(=S)n2c1C[C@@H](c1c(F)ccc(Cl)c1F)C2)Nc1nncs1 [Example 168, (S)-2-(6-(3-chloro-2,6-difluorophenyl)-3-thioxo-2,5,6,7-tetrahydro-3H-pyrrolo[1,2-c]imidazol-1-yl)-N-(1,3,4-thiadiazol-2-yl)acetamide] | 51.9 % of control | 10.5 % of control |  |  | 
CN(C(=O)Cc1[nH]c(=S)n2c1C[C@H](c1c(F)ccc(Br)c1F)C2)C1CCCCC1 [Example 132, (R)-2-(6-(3-bromo-2,6-difluorophenyl)-3-thioxo-2,5,6,7-tetrahydro-3H-pyrrolo[1,2-c]imidazol-1-yl)-N-cyclohexyl-N-methylacetamide] | 91.9 % of control | 62.3 % of control |  |  | 
O=C(Cc1[nH]c(=S)n2c1C[C@@H](c1c(F)ccc(Cl)c1F)C2)N1CCCC1 [Example 110, (S)-2-(6-(3-chloro-2,6-difluorophenyl)-3-thioxo-2,5,6,7-tetrahydro-3H-pyrrolo[1,2-c]imidazol-1-yl)-1-(pyrrolidin-1-yl)ethan-1-one] |  | 52.4 % of control | 9.7 % of control |  | 

Results, then the compound that gave them:

Plasma (0.01 μM), activity in % of control (inhibitor 0.01 μM) | Plasma (0.1 μM), activity in % of control (inhibitor 0.1 μM) | Plasma (1 μM), activity in % of control | Plasma (0.01 μM), activity in % of control, re-test (asterisked) (inhibitor 0.01 μM, re-tested under the same experimental conditions, asterisked data believed to be correct) | Plasma (0.1 μM), activity in % of control, re-test (asterisked) (inhibitor 0.1 μM, re-tested under the same experimental conditions, asterisked data believed to be correct) | Compound
27.8 % of control | 2.3 % of control |  |  |  | CN1C[C@@H](NC(=O)Cc2c3n(c(=S)n2C)C[C@H](c2c(F)ccc(Br)c2F)C3)CC1=O [Example 449, 2-((S)-6-(3-bromo-2,6-difluorophenyl)-2-methyl-3-thioxo-2,5,6,7-tetrahydro-3H-pyrrolo[1,2-c]imidazol-1-yl)-N—((S)-1-methyl-5-oxopyrrolidin-3-yl)acetamide]
78.6 % of control | 52.0 % of control |  |  |  | Cn1c(CC(=O)N[C@@H]2CCOC2)c2n(c1=S)C[C@H](c1cc(F)cc(F)c1)C2 [Example 425, 2-((S)-6-(3,5-difluorophenyl)-2-methyl-3-thioxo-2,5,6,7-tetrahydro-3H-pyrrolo[1,2-c]imidazol-1-yl)-N—((R)-tetrahydrofuran-3-yl)acetamide]
58.5 % of control | 12.2 % of control |  |  |  | Cn1c(CC(=O)N2CCC(CF)C2)c2n(c1=S)C[C@H](c1c(F)ccc(Br)c1F)C2 (stereo partly drawn) [Example 458, 2-((S)-6-(3-bromo-2,6-difluorophenyl)-2-methyl-3-thioxo-2,5,6,7-tetrahydro-3H-pyrrolo[1,2-c]imidazol-1-yl)-1-(3-(fluoromethyl)pyrrolidin-1-yl)ethan-1-one]
67.2 % of control | 11.8 % of control |  |  |  | CN(C(=O)Cc1c2n(c(=S)n1C)C[C@@]1(c3cc(Br)ccc3F)C[C@@H]21)C1CCOCC1 [Example 439, 2-((5aS,6aR)-5a-(5-bromo-2-fluorophenyl)-2-methyl-3-thioxo-2,3,5,5a,6,6a-hexahydrocyclopropa[3,4]pyrrolo[1,2-c]imidazol-1-yl)-N-methyl-N-(tetrahydro-2H-pyran-4-yl)acetamide]
51.9 % of control | 21.1 % of control |  |  |  | Cn1c(CC(=O)NCC#N)c2n(c1=S)C[C@@]1(c3cc(Cl)ccc3F)C[C@@H]21 [Example 304, 2-((5aS,6aR)-5a-(5-chloro-2-fluorophenyl)-2-methyl-3-thioxo-2,3,5,5a,6,6a-hexahydrocyclopropa[3,4]pyrrolo[1,2-c]imidazol-1-yl)-N-(cyanomethyl)acetamide]
49.6 % of control | 6.5 % of control |  |  |  | CN(C(=O)Cc1c2n(c(=S)n1C)C[C@@]1(c3cc(Br)ccc3F)C[C@@H]21)[C@@H]1CCOC1 [Example 466, 2-((5aS,6aR)-5a-(5-bromo-2-fluorophenyl)-2-methyl-3-thioxo-2,3,5,5a,6,6a-hexahydrocyclopropa[3,4]pyrrolo[1,2-c]imidazol-1-yl)-N-methyl-N—((R)-tetrahydrofuran-3-yl)acetamide]
56.9 % of control | 9.2 % of control |  |  |  | Cn1c(CC(=O)NC2COC2)c2n(c1=S)C[C@@]1(c3cc(Cl)ccc3F)C[C@@H]21 [Example 433, 2-((5aS,6aR)-5a-(5-chloro-2-fluorophenyl)-2-methyl-3-thioxo-2,3,5,5a,6,6a-hexahydrocyclopropa[3,4]pyrrolo[1,2-c]imidazol-1-yl)-N-(oxetan-3-yl)acetamide]
70.6 % of control | 18.0 % of control |  |  |  | Cn1c(CC(=O)N[C@H]2CCOC2)c2n(c1=S)C[C@@]1(c3cc(Cl)ccc3F)C[C@@H]21 [Example 306, 2-((5aS,6aR)-5a-(5-chloro-2-fluorophenyl)-2-methyl-3-thioxo-2,3,5,5a,6,6a-hexahydrocyclopropa[3,4]pyrrolo[1,2-c]imidazol-1-yl)-N—((S)-tetrahydrofuran-3-yl)acetamide]
64.0 % of control | 7.5 % of control |  |  |  | CN(C(=O)Cc1c2n(c(=S)n1C)C[C@@]1(c3cc(Br)ccc3F)C[C@@H]21)C1COC1 [Example 438, 2-((5aS,6aR)-5a-(5-bromo-2-fluorophenyl)-2-methyl-3-thioxo-2,3,5,5a,6,6a-hexahydrocyclopropa[3,4]pyrrolo[1,2-c]imidazol-1-yl)-N-methyl-N-(oxetan-3-yl)acetamide]
